# From US20240245793A1, “PSD-95 INHIBITORS AND USES THEREOF” (priority 2021, published 2024)
# Read-outs that look alike come from different tables or passages of the source.
# Tested on: HeLa cells stably expressing HaloGFP
# Assay: Chloroalkane penetration assay (CAPA), membrane permeability and cellular uptake
# Assay type: cell-based
# Excerpt: Since PSD-95 is located intracellularly, it is essential for any drug targeting PSD-95 to efficiently cross the cell membrane. To assess the cellular permeability and delivery to the cytosol of the compounds as defined herein, the cellular chloroalkane penetration assay (CAPA) may be used (Peraro et al. 2018). This assay takes advantage of a modified haloalkane dehalogenase designed to covalently bind chloroalkane (CA) molecules. A HeLa cell line expressing a fusion protein comprising a HaloTag, a green fluorescent protein (GFP) and a mitochondria-targeting peptide is used to report cytosolic delivery. The general format of the CAPA is a pulse-chase assay (Deprey & Kritzer, 2020). Cells expressing the HaloTag enzyme are incubated with CA-tagged peptides. When these CA-peptides penetrate the cell membrane and reach the cytosol, they will bind to and react with the HaloTag (pulse step). Following a washing step, the cells are incubated with a CA-tagged dye that quantitatively penetrates the cell membrane and reacts with remaining unreacted HaloTag sites (chase step). Flow cytometry is used to measure the fluorescence intensity of the cells and the measured fluorescence is inversely proportional to the amount of CA-peptides that reach the penetrated the cells and can thus be used to assess cytosolic delivery. The obtained data is commonly expressed as CP50 values, the concentration at which 50% cell penetration is observed. The CP50 value of a compound may be measured as described in example 4.
# The membrane permeability of compounds 10 to 75 was determined in HeLa cells stably expressing HaloGFP exclusively located in the cytosol. Cells were seeded at a density of 40.000 cells/well one day prior to the experiment. After the growth media was aspirated and replaced by 100 μL of Opti-MEM, 25 μL of a prepared serial dilution of the ligand in Opti-MEM was added to the cells (constant DMSO concentration), and the plate was incubated for 4 h at 37° C. and 5% CO2. The contents of the wells were aspirated, and cells were washed with fresh Opti-MEM for 15 min. After aspiration of the wash, the cells were incubated with TAMRA-CA (5 μM) for 15 min. After aspiration of the chase solution, cells were washed with Opti-MEM for 30 min. Following removal of the wash, cells were trypsinized, resuspended in PBS (2% FBS), and analyzed using a benchtop flow cytometer. Using no ligand and no TAMRA-CA control well, the obtained fluorescence intensity data was normalized and plotted as dose-response curves. Reported CP50 values represent half-maximum red fluorescence which behaves inverse to cell penetration of the ligand.
CP50 [µM],Structure (SMILES),"CP50 (CA-tagged NPEG4-(IETDV)2 with various CPP-tags, 4 h at 37° C., mean ± SEM (Table 11, FIG. 8)) [µM]"
17.9 ± 0.3,CC[C@H](C)[C@H](NC(=O)CCOCCOCCN(CCOCCOCCC(=O)N[C@H](C(=O)N[C@@H](CCC(=O)O)C(=O)N[C@H](C(=O)N[C@@H](CC(=O)O)C(=O)N[C@H](C(=O)O)C(C)C)[C@@H](C)O)[C@@H](C)CC)C(=O)[C@H](Cc1ccccc1)NC(=O)[C@H](CCC(N)=O)NC(=O)CNC(=O)[C@H](CCCNC(=N)N)NC(=O)[C@H](CC(C)C)NC(=O)[C@H](CC(C)C)NC(=O)[C@H](CCCNC(=N)N)NC(=O)[C@H](CC(C)C)NC(=O)[C@H](Cc1ccc(O)cc1)NC(=O)[C@@H](NC(=O)[C@H](CC(C)C)NC(=O)[C@@H]1CCCN1C(=O)CCC(=O)NCCOCCOCCCCCCCl)[C@@H](C)CC)C(=O)N[C@@H](CCC(=O)O)C(=O)N[C@H](C(=O)N[C@@H](CC(=O)O)C(=O)N[C@H](C(=O)O)C(C)C)[C@@H](C)O [Compound 57],
67.2 ± 5.3,CC[C@@H](C)[C@@H](NC(=O)[C@@H](CC(C)C)NC(=O)[C@H]1CCCN1C(=O)CCC(=O)NCCOCCOCCCCCCCl)C(=O)N[C@H](Cc1ccc(O)cc1)C(=O)N[C@H](CC(C)C)C(=O)N[C@H](CCCNC(=N)N)C(=O)N[C@H](CC(C)C)C(=O)N[C@H](CC(C)C)C(=O)N[C@H](CCCNC(=N)N)C(=O)NCC(=O)N[C@H](CCC(N)=O)C(=O)N[C@H](Cc1ccccc1)C(=O)N(CCOCCOCCC(=O)N[C@H](C(=O)N[C@@H](CCC(=O)O)C(=O)N[C@H](C(=O)N[C@@H](CC(=O)O)C(=O)N[C@H](C(=O)O)C(C)C)[C@@H](C)O)[C@@H](C)CC)CCOCCOCCC(=O)N[C@H](C(=O)N[C@@H](CCC(=O)O)C(=O)N[C@H](C(=O)N[C@@H](CC(=O)O)C(=O)N[C@H](C(=O)O)C(C)C)[C@@H](C)O)[C@@H](C)CC [Compound 59],
,CC[C@H](C)[C@H](NC(=O)CCOCCOCCN(CCOCCOCCC(=O)N[C@H](C(=O)N[C@@H](CCC(=O)O)C(=O)N[C@H](C(=O)N[C@@H](CC(=O)O)C(=O)N[C@H](C(=O)O)C(C)C)[C@@H](C)O)[C@@H](C)CC)C(=O)[C@@H]1CC(=O)NC[C@H](NC(=O)CCC(=O)NCCOCCOCCCCCCCl)C(=O)N[C@@H](CCCCN)C(=O)N[C@@H](C)C(=O)N2CCC[C@H]2C(=O)N[C@@H](CCC(=O)O)C(=O)N[C@@H]([C@@H](C)O)C(=O)N[C@@H](C)C(=O)N[C@@H](CC(C)C)C(=O)N1)C(=O)N[C@@H](CCC(=O)O)C(=O)N[C@H](C(=O)N[C@@H](CC(=O)O)C(=O)N[C@H](C(=O)O)C(C)C)[C@@H](C)O [Compound 61],13.2 ± 0.4
11.2 ± 0.7,CC[C@H](C)[C@H](NC(=O)CCOCCOCCN(CCOCCOCCC(=O)N[C@H](C(=O)N[C@@H](CCC(=O)O)C(=O)N[C@H](C(=O)N[C@@H](CC(=O)O)C(=O)N[C@H](C(=O)O)C(C)C)[C@@H](C)O)[C@@H](C)CC)C(=O)[C@H](CCCCNC(=O)CCC(=O)NCCOCCOCCCCCCCl)NC(=O)CCCNC(=O)CC[C@@H]1NC(=O)[C@@H](CCCNC(=N)N)NC(=O)[C@H](CCCNC(=N)N)NC(=O)[C@@H](CCCNC(=N)N)NC(=O)[C@H](CCCNC(=N)N)NC(=O)[C@H](Cc2ccc3ccccc3c2)NC(=O)[C@@H](Cc2ccccc2)NC(=O)[C@H](Cc2ccccc2)NC1=O)C(=O)N[C@@H](CCC(=O)O)C(=O)N[C@H](C(=O)N[C@@H](CC(=O)O)C(=O)N[C@H](C(=O)O)C(C)C)[C@@H](C)O [Compound 63],
1.66 ± 0.43,CC[C@H](C)[C@H](NC(=O)CCOCCOCCN(CCOCCOCCC(=O)N[C@H](C(=O)N[C@@H](CCC(=O)O)C(=O)N[C@H](C(=O)N[C@@H](CC(=O)O)C(=O)N[C@H](C(=O)O)C(C)C)[C@@H](C)O)[C@@H](C)CC)C(=O)[C@H](CCCNC(=N)N)NC(=O)[C@H](CCCNC(=N)N)NC(=O)[C@H](CCCNC(=N)N)NC(=O)[C@H](CCCNC(=N)N)NC(=O)[C@H](CCCNC(=N)N)NC(=O)[C@H](CCCNC(=N)N)NC(=O)[C@H](CCCNC(=N)N)NC(=O)CCC(=O)NCCOCCOCCCCCCCl)C(=O)N[C@@H](CCC(=O)O)C(=O)N[C@H](C(=O)N[C@@H](CC(=O)O)C(=O)N[C@H](C(=O)O)C(C)C)[C@@H](C)O [Compound 64],
1.17 ± 0.37,CC[C@H](C)[C@H](NC(=O)CCOCCOCCN(CCOCCOCCC(=O)N[C@H](C(=O)N[C@@H](CCC(=O)O)C(=O)N[C@H](C(=O)N[C@@H](CC(=O)O)C(=O)N[C@H](C(=O)O)C(C)C)[C@@H](C)O)[C@@H](C)CC)C(=O)[C@H](CCCNC(=N)N)NC(=O)[C@H](CCCNC(=N)N)NC(=O)[C@H](CCCNC(=N)N)NC(=O)[C@H](CCCNC(=N)N)NC(=O)[C@H](CCCNC(=N)N)NC(=O)CCC(=O)NCCOCCOCCCCCCCl)C(=O)N[C@@H](CCC(=O)O)C(=O)N[C@H](C(=O)N[C@@H](CC(=O)O)C(=O)N[C@H](C(=O)O)C(C)C)[C@@H](C)O [Compound 65],
3.71 ± 0.30,CC[C@H](C)[C@H](NC(=O)CCOCCOCCN(CCOCCOCCC(=O)N[C@H](C(=O)N[C@@H](CCC(=O)O)C(=O)N[C@H](C(=O)N[C@@H](CC(=O)O)C(=O)N[C@H](C(=O)O)C(C)C)[C@@H](C)O)[C@@H](C)CC)C(=O)[C@H](CCCNC(=N)N)NC(=O)[C@H](CCCNC(=N)N)NC(=O)[C@H](CCCNC(=N)N)NC(=O)CCC(=O)NCCOCCOCCCCCCCl)C(=O)N[C@@H](CCC(=O)O)C(=O)N[C@H](C(=O)N[C@@H](CC(=O)O)C(=O)N[C@H](C(=O)O)C(C)C)[C@@H](C)O [Compound 66],
0.58 ± 0.09,CC(C)C[C@H](NC(=O)[C@@H](NC(=O)[C@H](CCC(=O)O)NC(=O)[C@H](CCCCN)NC(=O)CCOCCOCCN(CCOCCOCCC(=O)N[C@@H](CCCCN)C(=O)N[C@@H](CCC(=O)O)C(=O)N[C@H](C(=O)N[C@@H](CC(C)C)C(=O)N[C@H](C(=O)O)C(C)C)[C@@H](C)O)C(=O)[C@H](CCCNC(=N)N)NC(=O)[C@H](CCCNC(=N)N)NC(=O)[C@H](CCCNC(=N)N)NC(=O)[C@H](CCCNC(=N)N)NC(=O)[C@H](CCCNC(=N)N)NC(=O)[C@H](CCCNC(=N)N)NC(=O)[C@H](CCCNC(=N)N)NC(=O)CCC(=O)NCCOCCOCCCCCCCl)[C@@H](C)O)C(=O)N[C@H](C(=O)O)C(C)C [Compound 68],
0.51 ± 0.08,CC(C)C[C@H](NC(=O)[C@@H](NC(=O)[C@H](CCC(=O)O)NC(=O)[C@H](CCCCN)NC(=O)CCOCCOCCN(CCOCCOCCC(=O)N[C@@H](CCCCN)C(=O)N[C@@H](CCC(=O)O)C(=O)N[C@H](C(=O)N[C@@H](CC(C)C)C(=O)N[C@H](C(=O)O)C(C)C)[C@@H](C)O)C(=O)[C@H](CCCNC(=N)N)NC(=O)[C@H](CCCNC(=N)N)NC(=O)[C@H](CCCNC(=N)N)NC(=O)[C@H](CCCNC(=N)N)NC(=O)[C@H](CCCNC(=N)N)NC(=O)[C@H](CCCNC(=N)N)NC(=O)CCC(=O)NCCOCCOCCCCCCCl)[C@@H](C)O)C(=O)N[C@H](C(=O)O)C(C)C [Compound 70],
0.66 ± 0.14,CC(C)C[C@H](NC(=O)[C@@H](NC(=O)[C@H](CCC(=O)O)NC(=O)[C@H](CCCCN)NC(=O)CCOCCOCCN(CCOCCOCCC(=O)N[C@@H](CCCCN)C(=O)N[C@@H](CCC(=O)O)C(=O)N[C@H](C(=O)N[C@@H](CC(C)C)C(=O)N[C@H](C(=O)O)C(C)C)[C@@H](C)O)C(=O)[C@H](CCCNC(=N)N)NC(=O)[C@H](CCCNC(=N)N)NC(=O)[C@H](CCCNC(=N)N)NC(=O)[C@H](CCCNC(=N)N)NC(=O)[C@H](CCCNC(=N)N)NC(=O)CCC(=O)NCCOCCOCCCCCCCl)[C@@H](C)O)C(=O)N[C@H](C(=O)O)C(C)C [Compound 72],
0.37 ± 0.08,CC(C)C[C@H](NC(=O)[C@@H](NC(=O)[C@H](CCC(=O)O)NC(=O)[C@H](CCCCN)NC(=O)CCOCCOCCN(CCOCCOCCC(=O)N[C@@H](CCCCN)C(=O)N[C@@H](CCC(=O)O)C(=O)N[C@H](C(=O)N[C@@H](CC(C)C)C(=O)N[C@H](C(=O)O)C(C)C)[C@@H](C)O)C(=O)[C@H](CCCNC(=N)N)NC(=O)[C@H](CCCNC(=N)N)NC(=O)[C@H](CCCNC(=N)N)NC(=O)[C@H](CCCNC(=N)N)NC(=O)CCC(=O)NCCOCCOCCCCCCCl)[C@@H](C)O)C(=O)N[C@H](C(=O)O)C(C)C [Compound 74],
7.36 ± 0.31,CC(C)C[C@H](NC(=O)[C@@H](NC(=O)[C@H](CCC(=O)O)NC(=O)[C@H](CCCCN)NC(=O)CCOCCOCCN(CCOCCOCCC(=O)N[C@@H](CCCCN)C(=O)N[C@@H](CCC(=O)O)C(=O)N[C@H](C(=O)N[C@@H](CC(C)C)C(=O)N[C@H](C(=O)O)C(C)C)[C@@H](C)O)C(=O)[C@H](CCCNC(=N)N)NC(=O)[C@H](CCCNC(=N)N)NC(=O)[C@H](CCCNC(=N)N)NC(=O)CCC(=O)NCCOCCOCCCCCCCl)[C@@H](C)O)C(=O)N[C@H](C(=O)O)C(C)C [Compound 75],
